Results reported in US20060154243A1 (priority 2003, published 2006).

system: sera SARS-green, SARS-yellow, 1a, 1b, 2, 6, 37, 62 and London; type: binding, human

With PCYNFLKEQHCQKAS the “Recognition of the peptide by sera of individuals infected by SARS-CoV, form recognized” value (“Recognition of the peptide” for short) was “recognized in looped form”.
With PPCYNFLKEQHCQKA the “Recognition of the peptide” value was “recognized in looped form”.
In the case of QHCQKASTQREAEAA, the “Recognition of the peptide” value is reported as “recognized in looped form”.
With QKASTQREAEAAVKP the “Recognition of the peptide” value was “recognized in looped form”.
STQREAEAAVKPLLA was tested, and the “Recognition of the peptide” value was “recognized in looped form”.

system: serum London; type: binding, human

Going from PCYNFLKEQHCQKAS to PPCYNFLKEQHCQKA, the “Binding of serum London to linear peptides of Orf14 of SARS-CoV TOR2” value (“Binding of serum London” for short) falls from 0.2 to 0.1.

Compared with QHCQKASTQREAEAA, QKASTQREAEAAVKP is lower in “Binding of serum London” value: 0.5 for the first, 0.3 for the second.

In the case of STQREAEAAVKPLLA, the “Binding of serum London” value is reported as 0.4.

system: serum 37 (individual 37); type: binding, human

Compared with PCYNFLKEQHCQKAS, PPCYNFLKEQHCQKA is lower in “Binding of serum 37 to linear peptides of Orf14 of SARS-CoV TOR2” value: 0.4 for the first, 0.3 for the second.

Going from QHCQKASTQREAEAA to QKASTQREAEAAVKP, the “Binding of serum 37 to linear peptides of Orf14 of SARS-CoV TOR2” value falls from 0.5 to 0.4.

For STQREAEAAVKPLLA, the “Binding of serum 37 to linear peptides of Orf14 of SARS-CoV TOR2” value was 0.6.

system: serum 6 (individual 6); type: binding, human

First: PCYNFLKEQHCQKAS
Second: PPCYNFLKEQHCQKA
The “Binding of serum 6 to linear peptides of Orf14 of SARS-CoV TOR2” value of the first is higher: 0.3 for the first, 0.2 for the second.

QHCQKASTQREAEAA and QKASTQREAEAAVKP are the same in “Binding of serum 6 to linear peptides of Orf14 of SARS-CoV TOR2” value: 0.3 for the first, 0.3 for the second.

With STQREAEAAVKPLLA the “Binding of serum 6 to linear peptides of Orf14 of SARS-CoV TOR2” value was 0.5.

system: serum SARS-yellow; type: binding, human

Going from PCYNFLKEQHCQKAS to PPCYNFLKEQHCQKA, the “Binding of serum SARS-yellow to linear peptides of Orf14 of SARS-CoV TOR2” value (from here on “Binding of serum SARS-yellow”) falls from 0.1 to 0.0.

Going from QHCQKASTQREAEAA to QKASTQREAEAAVKP, the “Binding of serum SARS-yellow” value falls from 0.3 to 0.1.

For STQREAEAAVKPLLA, the “Binding of serum SARS-yellow” value was 0.5.

system: serum SARS-green; type: binding, human

PCYNFLKEQHCQKAS and PPCYNFLKEQHCQKA are the same in “Binding of serum SARS-green to linear peptides of Orf14 of SARS-CoV TOR2” value (shortened to “Binding of serum SARS-green”): 0.1 for the first, 0.1 for the second.

Compared with QHCQKASTQREAEAA, QKASTQREAEAAVKP is lower in “Binding of serum SARS-green” value: 0.3 for the first, 0.1 for the second.

In the case of STQREAEAAVKPLLA, the “Binding of serum SARS-green” value is reported as 0.4.

system: serum 1a (individual 1, early serum); type: binding, human

PCYNFLKEQHCQKAS and PPCYNFLKEQHCQKA are the same in “Binding of serum 1a to linear peptides of Orf14 of SARS-CoV TOR2” value (shortened to “Binding of serum 1a”): 0.3 for the first, 0.3 for the second.

QHCQKASTQREAEAA and QKASTQREAEAAVKP are the same in “Binding of serum 1a” value: 0.4 for the first, 0.4 for the second.

STQREAEAAVKPLLA was tested, and the “Binding of serum 1a” value was 0.5.

system: serum 2 (individual 2); type: binding, human

PCYNFLKEQHCQKAS and PPCYNFLKEQHCQKA are the same in “Binding of serum 2 to linear peptides of Orf14 of SARS-CoV TOR2” value: 0.1 for the first, 0.1 for the second.

First: QHCQKASTQREAEAA
Second: QKASTQREAEAAVKP
The “Binding of serum 2 to linear peptides of Orf14 of SARS-CoV TOR2” value of the first is higher: 0.6 for the first, 0.4 for the second.

For STQREAEAAVKPLLA, the “Binding of serum 2 to linear peptides of Orf14 of SARS-CoV TOR2” value was 0.5.

system: control serum Blood-bank (commercial negative donor pooled serum); type: binding, human

Going from PCYNFLKEQHCQKAS to PPCYNFLKEQHCQKA, the “Control Serum Blood-Bank Looped peptides” value rises from 0.7 to 0.8.

Compared with QHCQKASTQREAEAA, QKASTQREAEAAVKP is lower in “Control Serum Blood-Bank Looped peptides” value: 1.1 for the first, 0.7 for the second.

For STQREAEAAVKPLLA, the “Control Serum Blood-Bank Looped peptides” value was 1.2.

Going from PCYNFLKEQHCQKAS to PPCYNFLKEQHCQKA, the “Control serum Blood-bank linear peptides” value rises from 0.0 to 0.2.

First: QHCQKASTQREAEAA
Second: QKASTQREAEAAVKP
The “Control serum Blood-bank linear peptides” value of the first is higher: 0.4 for the first, 0.3 for the second.

For STQREAEAAVKPLLA, the “Control serum Blood-bank linear peptides” value was 0.6.

system: serum 62 (individual 62); type: binding, human

Going from PCYNFLKEQHCQKAS to PPCYNFLKEQHCQKA, the “Binding of serum 62 to linear peptides of Orf14 of SARS-CoV TOR2” value rises from 0.1 to 0.2.

First: QHCQKASTQREAEAA
Second: QKASTQREAEAAVKP
The “Binding of serum 62 to linear peptides of Orf14 of SARS-CoV TOR2” value of the first is higher: 0.4 for the first, 0.3 for the second.

In the case of STQREAEAAVKPLLA, the “Binding of serum 62 to linear peptides of Orf14 of SARS-CoV TOR2” value is reported as 0.4.

system: control serum LUMC (pooled serum of ten healthy hospital workers); type: binding, human

PCYNFLKEQHCQKAS and PPCYNFLKEQHCQKA are the same in “Control serum LUMC linear peptides” value: 0.1 for the first, 0.1 for the second.

Compared with QHCQKASTQREAEAA, QKASTQREAEAAVKP is lower in “Control serum LUMC linear peptides” value: 0.4 for the first, 0.3 for the second.

With STQREAEAAVKPLLA the “Control serum LUMC linear peptides” value was 0.6.

First: PCYNFLKEQHCQKAS
Second: PPCYNFLKEQHCQKA
The “Control serum LUMC looped peptides” value of the first is lower: 0.5 for the first, 0.6 for the second.

Compared with QHCQKASTQREAEAA, QKASTQREAEAAVKP is lower in “Control serum LUMC looped peptides” value: 1.2 for the first, 0.8 for the second.

For STQREAEAAVKPLLA, the “Control serum LUMC looped peptides” value was 1.2.

system: serum 1b (individual 1, late serum); type: binding, human

PCYNFLKEQHCQKAS and PPCYNFLKEQHCQKA are the same in “Binding of serum 1b to linear peptides of Orf14 of SARS-CoV TOR2” value (shortened to “Binding of serum 1b”): 0.2 for the first, 0.2 for the second.

Compared with QHCQKASTQREAEAA, QKASTQREAEAAVKP is lower in “Binding of serum 1b” value: 0.4 for the first, 0.3 for the second.

STQREAEAAVKPLLA was tested, and the “Binding of serum 1b” value was 0.3.
